Read-outs that look alike come from different tables or passages of the source.
Tests used:
Format in all cases: cell-based
CAKI-1 = assay: NCI60 one-dose screen; details: Homo sapiens
HCT-15 [1] = assay: NCI60 five-dose screen; details: Homo sapiens
NCI/ADR-RES = assay: NCI60 one-dose screen; details: Homo sapiens, read-out: Growth percent
MDA-MB-435 = assay: NCI60 five-dose screen; details: Homo sapiens
RXF 393 = assay: NCI60 one-dose screen; details: Homo sapiens
Breast Cancer panel = assay: NCI60 five-dose screen, panel mean; details: Homo sapiens, read-out: Mean GI50
NCI-H522 [2] = assay: NCI60 five-dose screen; details: Homo sapiens
HCT-116 [3] = assay: NCI60 five-dose screen; details: Homo sapiens
Leukemia panel = assay: NCI60 five-dose screen, panel mean; details: Homo sapiens, read-out: Mean GI50
T-47D = assay: NCI60 five-dose screen; details: Homo sapiens, T47D
BT-549 = assay: NCI60 one-dose screen; details: Homo sapiens
ACHN [4] = assay: NCI60 one-dose screen; details: Homo sapiens, read-out: Growth percent
Ovarian Cancer panel = assay: NCI60 five-dose screen, panel mean; details: Homo sapiens, read-out: Mean GI50
ACHN [5] = assay: NCI60 five-dose screen; details: Homo sapiens
NCI-H322M = assay: NCI60 one-dose screen; details: Homo sapiens, read-out: Growth percent
MOLT-4 = assay: NCI60 five-dose screen; details: Homo sapiens
HCT-15 [6] = assay: NCI60 one-dose screen; details: Homo sapiens
HL-60(TB) = assay: NCI60 one-dose screen; details: Homo sapiens
MALME-3M = assay: NCI60 five-dose screen; details: Homo sapiens
NCI-H522 [7] = assay: NCI60 one-dose screen; details: Homo sapiens
NCI-H23 = assay: NCI60 one-dose screen; details: Homo sapiens
SK-MEL-28 = assay: NCI60 one-dose screen; details: Homo sapiens
Renal Cancer panel = assay: NCI60 five-dose screen, panel mean; details: Homo sapiens, read-out: Mean GI50
HT29 = assay: NCI60 five-dose screen; details: Homo sapiens, HT-29
[8] = test system: 60 human tumor cell lines (NCI60); assay: NCI60 one-dose screen, overall mean; details: for activity at 10 µM: Homo sapiens, read-out: Mean growth percent
SW-620 = assay: NCI60 five-dose screen; details: Homo sapiens
Colon Cancer panel = assay: NCI60 five-dose screen, panel mean; details: Homo sapiens, read-out: Mean GI50
SK-MEL-5 = assay: NCI60 five-dose screen; details: Homo sapiens
M14 = assay: NCI60 one-dose screen; details: Homo sapiens
HCC-2998 = assay: NCI60 one-dose screen; details: Homo sapiens
SF-295 = assay: NCI60 one-dose screen; details: Homo sapiens
OVCAR-4 [9] = assay: NCI60 one-dose screen; details: Homo sapiens
CCRF-CEM = assay: NCI60 five-dose screen; details: Homo sapiens
IGROV1 [10] = assay: NCI60 five-dose screen; details: Homo sapiens, IGROV-1
UACC-62 = assay: NCI60 five-dose screen; details: Homo sapiens
HCT-116 [11] = assay: NCI60 one-dose screen; details: Homo sapiens
SK-OV-3 = assay: NCI60 five-dose screen; details: Homo sapiens
OVCAR-5 = assay: NCI60 one-dose screen; details: Homo sapiens
OVCAR-3 = assay: NCI60 one-dose screen; details: Homo sapiens
EKVX = assay: NCI60 one-dose screen; details: Homo sapiens, read-out: Growth percent
OVCAR-8 = assay: NCI60 one-dose screen; details: Homo sapiens
LOX IMVI = assay: NCI60 five-dose screen; details: Homo sapiens
OVCAR-4 [12] = assay: NCI60 five-dose screen; details: Homo sapiens
HOP-62 = assay: NCI60 five-dose screen; details: Homo sapiens
IGROV1 [13] = assay: NCI60 one-dose screen; details: Homo sapiens
DU-145 = assay: NCI60 one-dose screen; details: Homo sapiens
CNS Cancer panel = assay: NCI60 five-dose screen, panel mean; details: Homo sapiens, read-out: Mean GI50

SMILES: CC[C@]12C=CCN3CC[C@@]4(c5ccc(OC)cc5N(C)[C@H]4[C@@](O)(C(=O)OC)[C@@H]1OC(=O)CCC[P+](c1ccc(OC)cc1)(c1ccc(OC)cc1)c1ccc(OC)cc1)[C@@H]32 [9b]
- activity at 10 µM (CAKI-1; CAKI-1, 10 μM, one-dose, read-out: Growth percent): -93.3%
- GI50 (HCT-15 [1]; HCT-15, Colon Cancer, five-dose, read-out: GI50): 3.64 µM
- activity at 10 µM (NCI/ADR-RES; 10 μM, one-dose): 79.9%
- GI50 (MDA-MB-435; MDA-MB-435, Melanoma, five-dose, read-out: GI50): 0.48 µM
- activity at 10 µM (RXF 393; RXF 393, 10 μM, one-dose, read-out: Growth percent): -92.6%
- GI50 (Breast Cancer panel; mean over Breast Cancer panel): 0.64 µM
- GI50 (NCI-H522 [2]; NCI-H522, Non-small Cell Lung Cancer, five-dose, read-out: GI50): 0.391 µM
- GI50 (HCT-116 [3]; HCT-116, Colon Cancer, five-dose, read-out: GI50): 0.712 µM
- GI50 (Leukemia panel; mean over Leukemia panel): 0.55 µM
- GI50 (T-47D; T-47D, Breast Cancer, five-dose, read-out: GI50): 0.353 µM
- activity at 10 µM (BT-549; BT-549, 10 μM, one-dose, read-out: Growth percent): -96.6%
- activity at 10 µM (ACHN [4]; 10 μM, one-dose): -95.8%
- GI50 (Ovarian Cancer panel; mean over Ovarian Cancer panel): 3.46 µM
- GI50 (ACHN [5]; Renal Cancer, five-dose, read-out: GI50): 0.458 µM
- activity at 10 µM (NCI-H322M; 10 μM, one-dose): -97.7%
- GI50 (MOLT-4; MOLT-4, Leukemia, five-dose, read-out: GI50): 0.933 µM
- activity at 10 µM (HCT-15 [6]; HCT-15, 10 μM, one-dose, read-out: Growth percent): -86.3%
- activity at 10 µM (HL-60(TB); HL-60(TB), 10 μM, one-dose, read-out: Growth percent): -39.6%
- GI50 (MALME-3M; MALME-3M, Melanoma, five-dose, read-out: GI50): 0.624 µM
- activity at 10 µM (NCI-H522 [7]; NCI-H522, 10 μM, one-dose, read-out: Growth percent): -89.4%
- activity at 10 µM (NCI-H23; NCI-H23, 10 μM, one-dose, read-out: Growth percent): -92.5%
- activity at 10 µM (SK-MEL-28; SK-MEL-28, 10 μM, one-dose, read-out: Growth percent): -96.3%
- GI50 (Renal Cancer panel; mean over Renal Cancer panel): 3.01 µM
- GI50 (HT29; HT29, Colon Cancer, five-dose, read-out: GI50): 0.371 µM
- activity at 10 µM ([8]; mean over 60 cell lines, 10 μM, one-dose): -76.2%
- average reduction / average cell death ([8]; one-dose, 10 µM, average over cell lines): more than 70%
- GI50 (SW-620; SW-620, Colon Cancer, five-dose, read-out: GI50): 0.844 µM
- GI50 (Colon Cancer panel; mean over Colon Cancer panel): 0.98 µM
- GI50 (SK-MEL-5; SK-MEL-5, Melanoma, five-dose, read-out: GI50): 1.55 µM
- activity at 10 µM (M14; M14, 10 μM, one-dose, read-out: Growth percent): -88.4%
- activity at 10 µM (HCC-2998; HCC-2998, 10 μM, one-dose, read-out: Growth percent): -89.7%
- activity at 10 µM (SF-295; SF-295, 10 μM, one-dose, read-out: Growth percent): -93.7%
- activity at 10 µM (OVCAR-4 [9]; OVCAR-4, 10 μM, one-dose, read-out: Growth percent): -75.3%
- GI50 (CCRF-CEM; Leukemia, five-dose, read-out: GI50): 0.887 µM
- GI50 (IGROV1 [10]; IGROV1, Ovarian Cancer, five-dose, read-out: GI50): 0.533 µM
- GI50 (UACC-62; UACC-62, Melanoma, five-dose, read-out: GI50): 0.603 µM
- activity at 10 µM (HCT-116 [11]; HCT-116, 10 μM, one-dose, read-out: Growth percent): -68.8%
- GI50 (SK-OV-3; SK-OV-3, Ovarian Cancer, five-dose, read-out: GI50): 1.02 µM
- activity at 10 µM (OVCAR-5; OVCAR-5, 10 μM, one-dose, read-out: Growth percent): -96.5%
- activity at 10 µM (OVCAR-3; OVCAR-3, 10 μM, one-dose, read-out: Growth percent): -73.6%
- activity at 10 µM (EKVX; 10 μM, one-dose): -85%
- activity at 10 µM (OVCAR-8; OVCAR-8, 10 μM, one-dose, read-out: Growth percent): -86.2%
- GI50 (LOX IMVI; Melanoma, five-dose, read-out: GI50): 0.614 µM
- GI50 (OVCAR-4 [12]; OVCAR-4, Ovarian Cancer, five-dose, read-out: GI50): 0.76 µM
- GI50 (HOP-62; HOP-62, Non-small Cell Lung Cancer, five-dose, read-out: GI50): 1.66 µM
- activity at 10 µM (IGROV1 [13]; IGROV-1, IGROV1, 10 μM, one-dose, read-out: Growth percent): -92.1%
- activity at 10 µM (DU-145; DU-145, 10 μM, one-dose, read-out: Growth percent): -75.4%
- GI50 (CNS Cancer panel; mean over CNS Cancer panel): 1.02 µM

SMILES: CC[C@]12C=CCN3CC[C@@]4(c5ccc(OC)cc5N(C)[C@H]4[C@@](O)(C(=O)OC)[C@@H]1OC(=O)CCC[P+](c1ccc(F)cc1)(c1ccc(F)cc1)c1ccc(F)cc1)[C@@H]32 [9c]
- activity at 10 µM (CAKI-1; CAKI-1, read-out: Growth percent): 73.1%
- GI50 (HCT-15 [1]; HCT-15): > 48.5 µM
- activity at 10 µM (NCI/ADR-RES): 104%
- GI50 (MDA-MB-435; MDA-MB-435): 8.14 µM
- activity at 10 µM (RXF 393; RXF 393, read-out: Growth percent): -10.4%
- GI50 (Breast Cancer panel): 8.04 µM
- GI50 (NCI-H522 [2]; NCI-H522): 3.88 µM
- GI50 (HCT-116 [3]; HCT-116): 14.8 µM
- GI50 (Leukemia panel): 7.25 µM
- GI50 (T-47D): 10.5 µM
- activity at 10 µM (BT-549; BT-549, read-out: Growth percent): -9.4%
- activity at 10 µM (ACHN [4]): 101%
- GI50 (Ovarian Cancer panel): 19 µM
- GI50 (ACHN [5]): > 48.5 µM
- activity at 10 µM (NCI-H322M): 65.2%
- GI50 (MOLT-4; MOLT-4): 9.69 µM
- activity at 10 µM (HCT-15 [6]; HCT-15, read-out: Growth percent): 99.6%
- activity at 10 µM (HL-60(TB); HL-60, read-out: Growth percent): -22.9%
- GI50 (MALME-3M; Malme-3M): 6.85 µM
- activity at 10 µM (NCI-H522 [7]; NCI-H522, read-out: Growth percent): -17.7%
- activity at 10 µM (NCI-H23; NCI-H23, read-out: Growth percent): 35.5%
- activity at 10 µM (SK-MEL-28; SK-MEL-28, read-out: Growth percent): -24.1%
- GI50 (Renal Cancer panel): 34.2 µM
- GI50 (HT29): 12.5 µM
- activity at 10 µM ([8]; 60 cell): 26.3%
- GI50 (SW-620; SW-620): 18.3 µM
- GI50 (Colon Cancer panel): 16.8 µM
- GI50 (SK-MEL-5; SK-MEL-5): 8.26 µM
- activity at 10 µM (M14; M14, read-out: Growth percent): 21.4%
- activity at 10 µM (HCC-2998; HCC 2998, read-out: Growth percent): 22.4%
- activity at 10 µM (SF-295; SF-295, read-out: Growth percent): 85%
- activity at 10 µM (OVCAR-4 [9]; OVCAR-4, read-out: Growth percent): 48.6%
- GI50 (CCRF-CEM): 12.7 µM
- GI50 (IGROV1 [10]): 7.09 µM
- GI50 (UACC-62; UACC-62): 6.05 µM
- activity at 10 µM (HCT-116 [11]; HCT-116, read-out: Growth percent): 32.2%
- GI50 (SK-OV-3; SK-OV-3): 15.8 µM
- activity at 10 µM (OVCAR-5; OVCAR-5, read-out: Growth percent): 67%
- activity at 10 µM (OVCAR-3; OVCAR-3, read-out: Growth percent): 21.1%
- activity at 10 µM (EKVX): 58.1%
- activity at 10 µM (OVCAR-8; OVCAR-8, read-out: Growth percent): 28%
- GI50 (LOX IMVI): 16.6 µM
- GI50 (OVCAR-4 [12]; OVCAR-4): 16.2 µM
- GI50 (HOP-62; HOP-62): 20.5 µM
- activity at 10 µM (IGROV1 [13]; IGROV-1, read-out: Growth percent): -15%
- activity at 10 µM (DU-145; DU-145, read-out: Growth percent): 47.7%
- GI50 (CNS Cancer panel): 20.2 µM
